According to US6673791B2, “Non-nucleoside reverse transcriptase inhibitors” (Boehringer Ingelheim (Canada) Ltd., priority 2001, dated 2004):

These molecules were tested against T1, K103N/Y181C double mutant RT (HIV-1 RT) (Human immunodeficiency virus type 1 group M subtype B, UniProt P03366, K702N/Y780C) (assay: biochemical). Settings: not given.
T1 construct: mutations that occur in the reverse transcriptase segment of the pol gene
Description: (§1) Based upon testing of these compounds, as described below, it is known that they inhibit the RNA-dependent DNA polymerase activity of HIV-1 RT. […] Utilising the Reverse Transcriptase (RT) Assay described below, compounds can be tested for their ability to inhibit the RNA-dependent DNA polymerase activity of HIV-1 RT. Certain specific compounds described in the Examples which appear below, were so tested. The results of this testing appear in Table 4 as IC50 (nM) and Table 5 as EC50 (nM).
(§2) Reverse TranscriptASE (RT) Assays
(§3) The assays are as described in WO 01/96338A1, the contents of which are hereby incorporated herein. The results are listed in Tables 8 as IC50(nM) and EC50(nM).
`CCN1c2ncc(CCOc3ccc(C4CC4C(=O)O)c4ccccc34)cc2C(=O)N(C)c2ccc(F)nc21` (centres unmarked) [Entry 1050] showed an IC50 of 0.1 to 1 µM.
Work on `CCN1c2ncc(CCOc3ccc(C(C)CC(=O)O)c4ccccc34)cc2C(=O)N(C)c2cccnc21` (centres unmarked) [Entry 1051] yielded an IC50 of 0.1 to 1 µM.
With `CCN1c2ncc(CCOc3ccc(C(C)C(=O)O)c4ccccc34)cc2C(=O)N(C)c2cccnc21` (centres unmarked) [Entry 1020] the IC50 was 0.1 to 1 µM.
`CCN1c2ncc(CCOc3ccc(/C=C/C(=O)O)c4ccccc34)cc2C(=O)N(C)c2ccc(Cl)nc21` [Entry 1029] showed an IC50 of 0.1 to 1 µM.

Same assay, conditions: K103N/Y181C double mutant RT; read-out: IC50 K103N/Y181C
`CCN1c2ncc(CCOc3ccc(CC(=O)NS(C)(=O)=O)c4ccccc34)cc2C(=O)N(C)c2cccnc21` [Entry 1019] was tested, and the IC50 was 0.1 to 1 µM.
Work on `CCN1c2ncc(CCOc3ccc(CC(=O)O)c4ccccc34)cc2C(=O)N(C)c2cccnc21` [Entry 1008] yielded an IC50 of 0.1 to 1 µM.
Molecule `CCN1c2ncc(CCOc3ccc(CCC(=O)O)c4ccccc34)cc2C(=O)N(C)c2cccnc21` [Entry 2011] has an IC50 of 0.1 to 1 µM.

Same assay, conditions: read-out: IC50 K103N/Y181C; K103N/Y181C double mutant RT
`CCN1c2ncc(CCOc3ccc(/C=C/C(=O)O)c4ccccc34)cc2C(=O)N(C)c2ccc(F)nc21` [Entry 2014] showed an IC50 of 0.1 to 1 µM.

The molecules below were run against T2, V106A mutant RT (HIV-1 RT) (Human immunodeficiency virus type 1 group M subtype B, UniProt P03366, V705A) (assay: biochemical). Settings: IC50 V106A (nM).
T2 construct: mutations that occur in the reverse transcriptase segment of the pol gene
Description: as §1, §2, §3
`CCN1c2ncc(CCOc3ccc(C4CC4C(=O)O)c4ccccc34)cc2C(=O)N(C)c2ccc(F)nc21` (centres unmarked) [Entry 1050] showed an IC50 of 100 to 1000 nM.
`CCN1c2ncc(CCOc3ccc(C(C)CC(=O)O)c4ccccc34)cc2C(=O)N(C)c2cccnc21` (centres unmarked) [Entry 1051] showed an IC50 greater than 1000 nM.
With `CCN1c2ncc(CCOc3ccc(C(C)C(=O)O)c4ccccc34)cc2C(=O)N(C)c2cccnc21` (centres unmarked) [Entry 1020] the IC50 was greater than 1000 nM.
Molecule `CCN1c2ncc(CCOc3ccc(/C=C/C(=O)O)c4ccccc34)cc2C(=O)N(C)c2ccc(Cl)nc21` [Entry 1029] has an IC50 of 100 to 1000 nM.

Same assay, conditions: read-out: IC50 V106A
With `CCN1c2ncc(CCOc3ccc(/C=C/C(=O)O)c4ccccc34)cc2C(=O)N(C)c2ccc(F)nc21` [Entry 2014] the IC50 was 100 to 1000 nM.
For `CCN1c2ncc(CCOc3ccc(CC(=O)NS(C)(=O)=O)c4ccccc34)cc2C(=O)N(C)c2cccnc21` [Entry 1019], the IC50 was greater than 1000 nM.
In the case of `CCN1c2ncc(CCOc3ccc(CC(=O)O)c4ccccc34)cc2C(=O)N(C)c2cccnc21` [Entry 1008], the IC50 is reported as greater than 1000 nM.
For `CCN1c2ncc(CCOc3ccc(CCC(=O)O)c4ccccc34)cc2C(=O)N(C)c2cccnc21` [Entry 2011], the IC50 was greater than 1000 nM.

These molecules were tested against T3, WT RT (HIV-1 RT) (Human immunodeficiency virus type 1 group M subtype B, UniProt P03366) (assay: biochemical). Settings: not given.
T3 construct: mutations that occur in the reverse transcriptase segment of the pol gene
Description: as §1, §2, §3
`CCN1c2ncc(CCOc3ccc(C4CC4C(=O)O)c4ccccc34)cc2C(=O)N(C)c2ccc(F)nc21` (centres unmarked) [Entry 1050] gave an IC50 of less than 0.1 µM.
Work on `CCN1c2ncc(CCOc3ccc(C(C)CC(=O)O)c4ccccc34)cc2C(=O)N(C)c2cccnc21` (centres unmarked) [Entry 1051] yielded an IC50 of less than 0.1 µM.
`CCN1c2ncc(CCOc3ccc(C(C)C(=O)O)c4ccccc34)cc2C(=O)N(C)c2cccnc21` (centres unmarked) [Entry 1020] gave an IC50 of less than 0.1 µM.
Work on `CCN1c2ncc(CCOc3ccc(/C=C/C(=O)O)c4ccccc34)cc2C(=O)N(C)c2ccc(Cl)nc21` [Entry 1029] yielded an IC50 of less than 0.1 µM.

Same assay, conditions: read-out: IC50 WT RT; wild type RT
In the case of `CCN1c2ncc(CCOc3ccc(/C=C/C(=O)O)c4ccccc34)cc2C(=O)N(C)c2ccc(F)nc21` [Entry 2014], the IC50 is reported as less than 0.1 µM.

Same assay, conditions: wild type RT; read-out: IC50 WT RT
`CCN1c2ncc(CCOc3ccc(CC(=O)NS(C)(=O)=O)c4ccccc34)cc2C(=O)N(C)c2cccnc21` [Entry 1019] gave an IC50 of less than 0.1 µM.
`CCN1c2ncc(CCOc3ccc(CC(=O)O)c4ccccc34)cc2C(=O)N(C)c2cccnc21` [Entry 1008] was tested, and the IC50 was less than 0.1 µM.

Each molecule was assayed against T4, Y188L mutant RT (HIV-1 RT) (Human immunodeficiency virus type 1 group M subtype B, UniProt P03366, Y787L) (assay: biochemical). Settings: IC50 Y188L (nM).
T4 construct: mutations that occur in the reverse transcriptase segment of the pol gene
Description: as §1, §2, §3
Work on `CCN1c2ncc(CCOc3ccc(/C=C/C(=O)O)c4ccccc34)cc2C(=O)N(C)c2ccc(F)nc21` [Entry 2014] yielded an IC50 greater than 1000 nM.
`CCN1c2ncc(CCOc3ccc(C4CC4C(=O)O)c4ccccc34)cc2C(=O)N(C)c2ccc(F)nc21` (centres unmarked) [Entry 1050] was tested, and the IC50 was 100 to 1000 nM.
Work on `CCN1c2ncc(CCOc3ccc(C(C)CC(=O)O)c4ccccc34)cc2C(=O)N(C)c2cccnc21` (centres unmarked) [Entry 1051] yielded an IC50 greater than 1000 nM.
Work on `CCN1c2ncc(CCOc3ccc(C(C)C(=O)O)c4ccccc34)cc2C(=O)N(C)c2cccnc21` (centres unmarked) [Entry 1020] yielded an IC50 greater than 1000 nM.
Molecule `CCN1c2ncc(CCOc3ccc(/C=C/C(=O)O)c4ccccc34)cc2C(=O)N(C)c2ccc(Cl)nc21` [Entry 1029] has an IC50 of 100 to 1000 nM.

Same assay, conditions: read-out: IC50 Y188L
`CCN1c2ncc(CCOc3ccc(CC(=O)NS(C)(=O)=O)c4ccccc34)cc2C(=O)N(C)c2cccnc21` [Entry 1019] was tested, and the IC50 was greater than 1000 nM.
Molecule `CCN1c2ncc(CCOc3ccc(CC(=O)O)c4ccccc34)cc2C(=O)N(C)c2cccnc21` [Entry 1008] has an IC50 greater than 1000 nM.
Work on `CCN1c2ncc(CCOc3ccc(CCC(=O)O)c4ccccc34)cc2C(=O)N(C)c2cccnc21` [Entry 2011] yielded an IC50 greater than 1000 nM.

Each molecule was assayed on WT RT (HIV-1 wild type strain) (assay: EC50 assay, WT RT strain). Settings: Human immunodeficiency virus 1, read-out: EC50 WT RT (nM).
Assay type: cell-based
Description: as §2, §3
With `CCN1c2ncc(CCOc3ccc(C4CC4C(=O)O)c4ccccc34)cc2C(=O)N(C)c2ccc(F)nc21` (centres unmarked) [Entry 1050] the EC50 was less than 100 nM.
`CCN1c2ncc(CCOc3ccc(C(C)CC(=O)O)c4ccccc34)cc2C(=O)N(C)c2cccnc21` (centres unmarked) [Entry 1051] was tested, and the EC50 was less than 100 nM.
`CCN1c2ncc(CCOc3ccc(C(C)C(=O)O)c4ccccc34)cc2C(=O)N(C)c2cccnc21` (centres unmarked) [Entry 1020] gave an EC50 of less than 100 nM.
With `CCN1c2ncc(CCOc3ccc(/C=C/C(=O)O)c4ccccc34)cc2C(=O)N(C)c2ccc(Cl)nc21` [Entry 1029] the EC50 was less than 100 nM.

Same assay, conditions: read-out: EC50 WT RT; wild type
`CCN1c2ncc(CCOc3ccc(/C=C/C(=O)O)c4ccccc34)cc2C(=O)N(C)c2ccc(F)nc21` [Entry 2014] was tested, and the EC50 was less than 100 nM.

Same assay, conditions: wild type; read-out: EC50 WT RT
For `CCN1c2ncc(CCOc3ccc(CC(=O)NS(C)(=O)=O)c4ccccc34)cc2C(=O)N(C)c2cccnc21` [Entry 1019], the EC50 was less than 100 nM.
`CCN1c2ncc(CCOc3ccc(CC(=O)O)c4ccccc34)cc2C(=O)N(C)c2cccnc21` [Entry 1008] was tested, and the EC50 was less than 100 nM.
With `CCN1c2ncc(CCOc3ccc(CCC(=O)O)c4ccccc34)cc2C(=O)N(C)c2cccnc21` [Entry 2011] the EC50 was less than 100 nM.

These molecules were tested on K103N/Y181C (HIV-1 double mutant strain) (assay: EC50 assay, K103N/Y181C strain). Settings: Human immunodeficiency virus 1, read-out: EC50 K103N/Y181C (nM), K103N/Y181C double mutant.
Assay type: cell-based
Description: as §2, §3
Molecule `CCN1c2ncc(CCOc3ccc(C4CC4C(=O)O)c4ccccc34)cc2C(=O)N(C)c2ccc(F)nc21` (centres unmarked) [Entry 1050] has an EC50 of 100 to 1000 nM.
`CCN1c2ncc(CCOc3ccc(C(C)CC(=O)O)c4ccccc34)cc2C(=O)N(C)c2cccnc21` (centres unmarked) [Entry 1051] showed an EC50 of less than 100 nM.
Molecule `CCN1c2ncc(CCOc3ccc(C(C)C(=O)O)c4ccccc34)cc2C(=O)N(C)c2cccnc21` (centres unmarked) [Entry 1020] has an EC50 of less than 100 nM.
With `CCN1c2ncc(CCOc3ccc(/C=C/C(=O)O)c4ccccc34)cc2C(=O)N(C)c2ccc(Cl)nc21` [Entry 1029] the EC50 was less than 100 nM.

Same assay, conditions: K103N/Y181C double mutant; read-out: EC50 K103N/Y181C
`CCN1c2ncc(CCOc3ccc(CC(=O)NS(C)(=O)=O)c4ccccc34)cc2C(=O)N(C)c2cccnc21` [Entry 1019] gave an EC50 of 100 to 1000 nM.
In the case of `CCN1c2ncc(CCOc3ccc(CC(=O)O)c4ccccc34)cc2C(=O)N(C)c2cccnc21` [Entry 1008], the EC50 is reported as less than 100 nM.
In the case of `CCN1c2ncc(CCOc3ccc(CCC(=O)O)c4ccccc34)cc2C(=O)N(C)c2cccnc21` [Entry 2011], the EC50 is reported as 100 to 1000 nM.

Same assay, conditions: read-out: EC50 K103N/Y181C; K103N/Y181C double mutant
Molecule `CCN1c2ncc(CCOc3ccc(/C=C/C(=O)O)c4ccccc34)cc2C(=O)N(C)c2ccc(F)nc21` [Entry 2014] has an EC50 of 100 to 1000 nM.
